Assay results from patent US11427553B2, “Dihydrooxadiazinones” (Bayer Aktiengesellschaft, priority 2017, dated 2022).

Legend:
HeLa cells = assay: Assay 1 cell proliferation measurement (CTG, 72 h), HeLa; assay type: cell-based, human; conditions: Homo sapiens, HeLa; Assay 1, 72 h, Cell Titer Glo; read-out: HeLa IC50 [nM] (Cervical cancer)
Method: (§1) Cell Proliferation Measurement
(§2) The antiproliferative activity of the compounds of the general formula (I) was examined in vitro in human cancer cells. For this purpose, the appropriate number of cells (Hela: 800; SK-MEL-3: 1000; A549: 800) were plated in 384-well plates with appropriate growth medium ((A549: DMEM/Ham's F12 (Biochrom; #FG 4815 with stabile Glutamine), FCS 10% final (Biochrom; #S 0415); Hela: DMEM/Ham's F12 (Biochrom; #FG 4815 with stabile Glutamine), FCS 10% final (Biochrom; #S 0415); SK-MEL-3: McCoy's 5A (Biochrom; #F 1015), FCS 10% final (Biochrom; #S 0415), L-Alanyl-L-Glutamine final: 2 mM, (Biochrom; #K 0302)) and incubated at 37° C. overnight. After 24 h, cells on one plate (0 h plate) were treated with 30 μl/cavity of CTG solution (Promega Cell Titer Glo (catalogue #G755B and G756B)) and incubated at room temperature for 10 min, and luminescence was measured by means of a VICTOR V (Perkin Elmer), in order to determine cell viability on commencement of treatment. The cells on the test plate were treated with the compounds of the general formula (I) as and incubated at 37° C. for 72 h. The compounds were added to the cells by means of an HP D300 digital dispenser in a 10-step 2.5-fold dilution series generally starting at a maximum final drug concentration of 100 nM. As control, the cells were treated with vehicle (DMSO at 0.3% final concentration). After 72 h, the cells were treated with 30 μl/cavity of CTG solution (Promega Cell Titer Glo (catalogue #G755B and G756B)) and incubated at room temperature for 10 min. and luminescence was measured by means of a VICTOR V (Perkin Elmer), in order to determine cell viability at the end of treatment. The percentage effect on cell growth and the IC50 derived therefrom were determined for each test substance using the values from the 0 h plate […] and the DMSO control […]. The IC50 values were calculated using a 4-parameter fit.

SK-MEL-3 cells = assay: Assay 1 cell proliferation measurement (CTG, 72 h), SK-MEL-3; assay type: cell-based, human; conditions: Homo sapiens, SK-MEL3; Assay 1, 72 h, Cell Titer Glo; read-out: SK-MEL-3 IC50 [nM] (melanoma)
Method: as §1, §2

human full length PDE3A = human full length PDE3A (Homo sapiens (Human), UniProt Q14432); assay: Assay 4 PDE3A enzyme inhibition (3H-cAMP SPA); assay type: biochemical; conditions: Sf9 cell extract
Chain of human full length PDE3A (Q14432 whole entry): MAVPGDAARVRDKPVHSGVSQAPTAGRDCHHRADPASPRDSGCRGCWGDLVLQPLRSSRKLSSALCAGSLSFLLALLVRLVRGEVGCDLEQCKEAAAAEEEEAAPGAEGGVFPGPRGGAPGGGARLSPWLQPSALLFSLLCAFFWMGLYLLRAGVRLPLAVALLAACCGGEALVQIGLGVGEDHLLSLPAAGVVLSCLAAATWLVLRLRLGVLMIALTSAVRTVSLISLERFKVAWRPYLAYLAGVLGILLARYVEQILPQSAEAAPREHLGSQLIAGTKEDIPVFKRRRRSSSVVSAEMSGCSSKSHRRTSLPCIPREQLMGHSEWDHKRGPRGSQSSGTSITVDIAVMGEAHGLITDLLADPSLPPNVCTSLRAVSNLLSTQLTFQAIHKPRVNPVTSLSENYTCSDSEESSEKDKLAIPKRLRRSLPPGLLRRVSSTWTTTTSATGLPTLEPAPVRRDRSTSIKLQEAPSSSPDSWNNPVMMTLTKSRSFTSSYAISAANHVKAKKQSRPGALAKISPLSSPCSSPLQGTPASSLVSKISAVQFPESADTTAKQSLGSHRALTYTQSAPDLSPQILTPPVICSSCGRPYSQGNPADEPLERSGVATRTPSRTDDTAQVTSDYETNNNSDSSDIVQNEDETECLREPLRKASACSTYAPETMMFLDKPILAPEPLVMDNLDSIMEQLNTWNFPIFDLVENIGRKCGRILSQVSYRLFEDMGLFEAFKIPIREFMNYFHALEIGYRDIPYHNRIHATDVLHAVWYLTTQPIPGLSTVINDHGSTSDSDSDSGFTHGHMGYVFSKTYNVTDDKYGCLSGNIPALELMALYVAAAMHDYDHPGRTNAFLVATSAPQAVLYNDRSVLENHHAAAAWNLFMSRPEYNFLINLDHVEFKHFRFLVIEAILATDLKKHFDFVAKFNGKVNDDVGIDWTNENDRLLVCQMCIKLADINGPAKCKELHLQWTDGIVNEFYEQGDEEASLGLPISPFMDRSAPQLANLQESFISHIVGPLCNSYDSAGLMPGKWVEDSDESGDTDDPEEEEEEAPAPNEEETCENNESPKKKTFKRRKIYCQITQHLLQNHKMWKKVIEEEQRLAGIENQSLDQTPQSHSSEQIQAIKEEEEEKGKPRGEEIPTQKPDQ
Method: Assay 4 Method for PDE3A Enzyme Inhibition
(§3) The commercially available 3H-cAMP Scintillation Proximity Assay (SPA, Perkin Elmer) system was used for enzyme inhibition studies. For the determination of the in vitro effect of example compounds on the PDE3A reactions 2 μl of the respective example compound solution in DMSO (serial dilutions) were placed in wells of microtiter plates (Isoplate-96/200W; Perkin Elmer). 50 μl of a dilution of PDE3A cell extract from Sf9 cells overexpressing human full length PDE3A (SB Drug Discovery, UK) in buffer A (50 mM Tris/HCl pH 7.5, 8.3 mM MgCl2, 1.7 mM EDTA, 0.2% BSA) was added. The dilution of the PDE3A cell extract was chosen such that the reaction kinetics was linear and less than 70% of the substrate was consumed (typical dilution 1:5000). The reaction was started by addition of 50 μl (0.025 μCi) of 1:2000 in buffer A w/o BSA diluted substrate [8-3H]adenosine 3′, 5′-cyclic phosphate (1 μCi/μl; Perkin Elmer). After incubation at room temperature for 60 min, the reaction was stopped by addition of 25 μl of a suspension containing 18 mg/ml yttrium scintillation proximity beads (Perkin Elmer) in water. The microtiter plates were sealed and measured in a Microbeta scintillation counter (PerkinElmer Wallac). IC50 values were determined from sigmoidal curves by plotting percentage PDE3A activity vs log compound concentration.

human full length PDE3B = human full length PDE3B (Homo sapiens (Human), UniProt Q13370); assay: Assay 5 PDE3B enzyme inhibition (3H-cAMP SPA); assay type: biochemical; conditions: Sf9 cell extract
Chain of human full length PDE3B (Q13370 whole entry): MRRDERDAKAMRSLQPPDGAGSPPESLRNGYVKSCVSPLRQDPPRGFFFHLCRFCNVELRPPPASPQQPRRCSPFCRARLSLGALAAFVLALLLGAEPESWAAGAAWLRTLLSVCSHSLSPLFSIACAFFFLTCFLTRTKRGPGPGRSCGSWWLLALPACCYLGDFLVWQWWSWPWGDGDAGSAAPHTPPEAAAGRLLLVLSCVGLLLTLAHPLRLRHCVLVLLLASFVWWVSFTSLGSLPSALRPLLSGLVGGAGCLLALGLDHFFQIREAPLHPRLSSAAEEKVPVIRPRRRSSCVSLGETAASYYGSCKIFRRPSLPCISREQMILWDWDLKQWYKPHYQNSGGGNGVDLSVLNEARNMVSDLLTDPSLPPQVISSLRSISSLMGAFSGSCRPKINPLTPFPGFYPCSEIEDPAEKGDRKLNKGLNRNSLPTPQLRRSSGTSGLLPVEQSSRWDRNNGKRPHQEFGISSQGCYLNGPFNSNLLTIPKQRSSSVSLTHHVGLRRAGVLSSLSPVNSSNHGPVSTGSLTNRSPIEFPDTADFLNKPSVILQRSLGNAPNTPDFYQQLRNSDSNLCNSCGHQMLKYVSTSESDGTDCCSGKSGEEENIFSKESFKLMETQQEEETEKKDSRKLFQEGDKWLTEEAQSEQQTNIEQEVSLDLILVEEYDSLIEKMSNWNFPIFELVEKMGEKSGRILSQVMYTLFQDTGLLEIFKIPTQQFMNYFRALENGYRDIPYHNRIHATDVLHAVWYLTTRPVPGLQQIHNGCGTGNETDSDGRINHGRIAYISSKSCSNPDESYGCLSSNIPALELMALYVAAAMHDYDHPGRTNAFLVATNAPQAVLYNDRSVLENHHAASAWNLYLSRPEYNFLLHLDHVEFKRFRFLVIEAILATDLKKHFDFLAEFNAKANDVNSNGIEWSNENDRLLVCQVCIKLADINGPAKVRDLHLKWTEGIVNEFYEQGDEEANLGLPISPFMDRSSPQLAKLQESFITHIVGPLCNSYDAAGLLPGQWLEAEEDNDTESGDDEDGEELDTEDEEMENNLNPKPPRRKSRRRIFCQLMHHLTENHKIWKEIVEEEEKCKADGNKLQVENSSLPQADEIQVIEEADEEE
Method: as §3, with “PDE3B” for “PDE3A”, “1:6000).” for “1:5000).”

IC50 (HeLa cells)	IC50 (SK-MEL-3 cells)	IC50 (human full length PDE3A)	IC50 (human full length PDE3B)	SMILES
0.5 nM	1 nM	15 nM	20 nM	O=C1NN=C(c2ccc(NC3CC(O)C3)c(C(F)(F)F)c2)CO1 (mixture of isomers) [Example 206, (cis/trans)-5-[4-{[3-hydroxycyclobutyl]amino}-3-(trifluoromethyl)phenyl]-3,6-dihydro-2H-1,3,4-oxadiazin-2-one]
> 100 nM	> 100 nM	76 nM	220 nM	NC1CCC(Nc2ccc(C3=NNC(=O)OC3)cc2C(F)(F)F)CC1 (mixture of isomers) [Example 320, 5-[4-{[4-aminocyclohexyl]amino}-3-(trifluoromethyl)phenyl]-3,6-dihydro-2H-1,3,4-oxadiazin-2-one (mixture of stereoisomers)]
> 100 nM	> 100 nM	580 nM	780 nM	NC1CCCC(Nc2ccc(C3=NNC(=O)OC3)cc2C(F)(F)F)C1 (mixture of isomers) [Example 322, 5-[4-{[3-aminocyclohexyl]amino}-3-(trifluoromethyl)phenyl]-3,6-dihydro-2H-1,3,4-oxadiazin-2-one (mixture of stereoisomers)]
7 nM	17 nM	25 nM	17 nM	CC1OC(=O)NN=C1c1cc(F)c(N2CCOCC2)c(F)c1 (racemic) [Example 17, (rac)-5-[3,5-Difluoro-4-(morpholin-4-yl)phenyl]-6-methyl-3,6-dihydro-2H-1,3,4-oxadiazin-2-one]
15 nM	41 nM	200 nM	100 nM	CC1OC(=O)NN=C1c1ccc(N2CCOCC2)cc1 (racemic) [Example 20, (rac)-6-Methyl-5-[4-(morpholin-4-yl)phenyl]-3,6-dihydro-2H-1,3,4-oxadiazin-2-one]
5 nM	7 nM	36 nM	13 nM	CC1OC(=O)NN=C1c1ccc(N2CCOCC2)c(F)c1 (racemic) [Example 119, (rac)-5-(3-Fluoro-4-morpholinophenyl)-6-methyl-3,6-dihydro-2H-1,3,4-oxadiazin-2-one]
2 nM	3 nM	13 nM	27 nM	O=C1NN=C(c2ccc(C3=CCC(O)CC3)c(C(F)(F)F)c2)CO1 (racemic) [Example 141, (rac)-5-[4′-Hydroxy-2-(trifluoromethyl)-2′,3′,4′,5′-tetrahydro[1,1′-biphenyl]-4-yl]-3,6-dihydro-2H-1,3,4-oxadiazin-2-one]
2 nM	4 nM	70 nM	120 nM	O=C1NN=C(c2ccc(C3=CC4CCC3C4)c(C(F)(F)F)c2)CO1 (racemic) [Example 154, (rac)-5-[4-(Bicyclo[2.2.1]hept-2-en-2-yl)-3-(trifluoromethyl)phenyl]-3,6-dihydro-2H-1,3,4-oxadiazin-2-one]
27 nM	82 nM	–	–	Cc1cc(C2=NNC(=O)OC2)ccc1-c1cccnc1 [Example 13, 5-[3-Methyl-4-(pyridin-3-yl)phenyl]-3,6-dihydro-2H-1,3,4-oxadiazin-2-one]
61 nM	71 nM	–	–	CCc1ccccc1-c1ccc(C2=NNC(=O)O[C@H]2C)cc1C(F)(F)F [Example 186, (6S)-5-[2′-Ethyl-2-(trifluoromethyl)[1,1′-biphenyl]-4-yl]-6-methyl-3,6-dihydro-2H-1,3,4-oxadiazin-2-one]
6 nM	–	48 nM	100 nM	CCOC1CN(c2ccc(C3=NNC(=O)OC3)cc2C(F)(F)F)C1 [Example 243, 5-[4-(3-Ethoxyazetidin-1-yl)-3-(trifluoromethyl)phenyl]-3,6-dihydro-2H-1,3,4-oxadiazin-2-one]
3 nM	–	120 nM	150 nM	O=C1NN=C(c2ccc(NCc3ncccn3)c(C(F)(F)F)c2)CO1 [Example 244, 5-[4-{[(Pyrimidin-2-yl)methyl]amino}-3-(trifluoromethyl)phenyl]-3,6-dihydro-2H-1,3,4-oxadiazin-2-one]
12 nM	–	95 nM	210 nM	C[C@@H](CCO)Nc1ccc(C2=NNC(=O)OC2)cc1C(F)(F)F [Example 246, 5-[4-{[(2S)-4-Hydroxybutan-2-yl]amino}-3-(trifluoromethyl)phenyl]-3,6-dihydro-2H-1,3,4-oxadiazin-2-one]
1 nM	–	100 nM	110 nM	O=C1NN=C(c2ccc(NCC3(CO)CCC3)c(C(F)(F)F)c2)CO1 [Example 249, 5-[4-({[1-(Hydroxymethyl)cyclobutyl]methyl}amino)-3-(trifluoromethyl)phenyl]-3,6-dihydro-2H-1,3,4-oxadiazin-2-one]
2 nM	–	120 nM	120 nM	O=C1NN=C(c2ccc(N3CC[C@H]3CO)c(C(F)(F)F)c2)CO1 [Example 250, 5-{4-[(2S)-2-(Hydroxymethyl)azetidin-1-yl]-3-(trifluoromethyl)phenyl}-3,6-dihydro-2H-1,3,4-oxadiazin-2-one]
1 nM	–	110 nM	86 nM	O=C1NN=C(c2ccc(N3CC4CC4C3)c(C(F)(F)F)c2)CO1 (centres unmarked) [Example 252, 5-[4-(3-Azabicyclo[3.1.0]hexan-3-yl)-3-(trifluoromethyl)phenyl]-3,6-dihydro-2H-1,3,4-oxadiazin-2-one]
2 nM	–	45 nM	31 nM	N#CCCCNc1ccc(C2=NNC(=O)OC2)cc1C(F)(F)F [Example 254, 4-[4-(2-Oxo-3,6-dihydro-2H-1,3,4-oxadiazin-5-yl)-2-(trifluoromethyl)anilino]butanenitrile]
5 nM	–	100 nM	76 nM	O=C1NN=C(c2ccc(N3CC4(C3)CS(=O)(=O)C4)c(C(F)(F)F)c2)CO1 [Example 255, 6-[4-(2-Oxo-3,6-dihydro-2H-1,3,4-oxadiazin-5-yl)-2-(trifluoromethyl)phenyl]-2λ^6-thia-6-azaspiro[3.3]heptane-2,2-dione]
> 100 nM	> 100 nM	–	–	Nc1ncc(-c2ccc(C3=NNC(=O)OC3)cc2F)cn1 [Example 330, 5-[4-(2-aminopyrimidin-5-yl)-3-fluorophenyl]-3,6-dihydro-2H-1,3,4-oxadiazin-2-one]
